Measurements published in paper PMC7998669, “7-(2-Anilinopyrimidin-4-yl)-1-benzazepin-2-ones Designed by a “Cut and Glue” Strategy Are Dual Aurora A/VEGF-R Kinase Inhibitors” (Molecules, 2021).

Columns and labels:
Assay in all cases: radiometric 33PanQinase protein kinase assay
Assay type in all cases: biochemical
Details in all cases: 1 µM ATP
INS-R = target: T1, INS-R (Homo sapiens, UniProt P06213)
T1 construct: host or cells: Sf9 (baculovirus)

AKT1 = target: T2, AKT1 (Homo sapiens, UniProt P31749)
T2 construct: host or cells: Sf9 (baculovirus)

SRC = target: T3, SRC (Homo sapiens, UniProt P12931)
T3 construct: host or cells: Sf9 (baculovirus)

ERBB2 = target: T4, ERBB2 (Homo sapiens, UniProt P04626)
T4 construct: host or cells: Sf9 (baculovirus)
T4 sequence (P04626 23-1255): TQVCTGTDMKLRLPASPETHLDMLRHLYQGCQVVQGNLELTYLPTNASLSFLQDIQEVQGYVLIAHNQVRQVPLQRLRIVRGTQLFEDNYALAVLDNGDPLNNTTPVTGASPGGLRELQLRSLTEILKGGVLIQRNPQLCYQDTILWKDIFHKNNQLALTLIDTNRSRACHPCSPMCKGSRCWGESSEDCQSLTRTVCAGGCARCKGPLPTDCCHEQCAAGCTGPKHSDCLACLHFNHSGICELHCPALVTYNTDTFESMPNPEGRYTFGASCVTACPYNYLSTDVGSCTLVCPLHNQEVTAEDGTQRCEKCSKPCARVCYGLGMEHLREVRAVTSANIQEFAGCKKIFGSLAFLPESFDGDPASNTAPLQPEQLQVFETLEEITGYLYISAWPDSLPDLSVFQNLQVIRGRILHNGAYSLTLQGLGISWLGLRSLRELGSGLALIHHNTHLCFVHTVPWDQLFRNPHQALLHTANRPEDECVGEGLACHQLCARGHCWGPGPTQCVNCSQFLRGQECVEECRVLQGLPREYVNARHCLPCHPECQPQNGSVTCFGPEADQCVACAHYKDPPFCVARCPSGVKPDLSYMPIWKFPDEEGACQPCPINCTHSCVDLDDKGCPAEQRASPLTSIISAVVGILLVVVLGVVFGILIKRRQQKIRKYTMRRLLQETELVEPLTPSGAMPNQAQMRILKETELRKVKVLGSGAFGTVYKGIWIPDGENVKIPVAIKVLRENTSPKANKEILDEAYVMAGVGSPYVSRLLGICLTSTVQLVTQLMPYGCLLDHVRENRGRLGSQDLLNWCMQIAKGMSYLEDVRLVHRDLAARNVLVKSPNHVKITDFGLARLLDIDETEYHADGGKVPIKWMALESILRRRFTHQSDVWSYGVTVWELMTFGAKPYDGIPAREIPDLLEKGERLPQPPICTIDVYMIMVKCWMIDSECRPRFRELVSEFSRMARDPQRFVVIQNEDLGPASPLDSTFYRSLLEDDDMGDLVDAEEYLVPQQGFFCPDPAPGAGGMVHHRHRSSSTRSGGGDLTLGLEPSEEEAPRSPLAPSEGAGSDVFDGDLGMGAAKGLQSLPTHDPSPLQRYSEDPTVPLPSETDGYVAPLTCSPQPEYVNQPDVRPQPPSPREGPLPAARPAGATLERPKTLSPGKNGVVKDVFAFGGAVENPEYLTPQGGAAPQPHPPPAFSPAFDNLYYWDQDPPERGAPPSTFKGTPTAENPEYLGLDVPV

T1 sequence (P06213 980-1382 limits assumed): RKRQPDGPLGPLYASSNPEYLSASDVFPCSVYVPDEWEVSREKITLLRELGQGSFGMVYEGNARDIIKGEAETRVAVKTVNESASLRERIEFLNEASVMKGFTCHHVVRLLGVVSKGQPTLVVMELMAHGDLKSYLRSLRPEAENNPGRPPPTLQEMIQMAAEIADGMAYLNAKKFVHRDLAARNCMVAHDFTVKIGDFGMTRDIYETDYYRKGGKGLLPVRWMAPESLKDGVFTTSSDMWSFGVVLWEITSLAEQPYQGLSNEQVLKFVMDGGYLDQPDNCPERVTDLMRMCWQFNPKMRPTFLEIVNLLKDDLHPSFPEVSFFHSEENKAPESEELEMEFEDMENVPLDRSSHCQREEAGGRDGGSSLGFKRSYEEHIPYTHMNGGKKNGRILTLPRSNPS
T2 sequence (P31749 whole entry): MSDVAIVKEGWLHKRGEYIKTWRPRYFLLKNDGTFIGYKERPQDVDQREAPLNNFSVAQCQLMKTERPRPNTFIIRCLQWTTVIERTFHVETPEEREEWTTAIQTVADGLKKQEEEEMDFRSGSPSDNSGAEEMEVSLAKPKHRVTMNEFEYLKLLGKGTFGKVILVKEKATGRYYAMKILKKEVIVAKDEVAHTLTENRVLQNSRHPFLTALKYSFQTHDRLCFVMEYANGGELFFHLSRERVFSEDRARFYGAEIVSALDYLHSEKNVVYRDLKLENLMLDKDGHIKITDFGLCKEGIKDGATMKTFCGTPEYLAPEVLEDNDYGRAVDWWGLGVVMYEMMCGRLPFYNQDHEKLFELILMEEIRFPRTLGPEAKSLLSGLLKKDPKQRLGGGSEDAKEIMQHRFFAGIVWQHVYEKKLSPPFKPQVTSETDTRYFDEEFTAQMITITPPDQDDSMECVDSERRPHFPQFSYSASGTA
T3 sequence (P12931 whole entry): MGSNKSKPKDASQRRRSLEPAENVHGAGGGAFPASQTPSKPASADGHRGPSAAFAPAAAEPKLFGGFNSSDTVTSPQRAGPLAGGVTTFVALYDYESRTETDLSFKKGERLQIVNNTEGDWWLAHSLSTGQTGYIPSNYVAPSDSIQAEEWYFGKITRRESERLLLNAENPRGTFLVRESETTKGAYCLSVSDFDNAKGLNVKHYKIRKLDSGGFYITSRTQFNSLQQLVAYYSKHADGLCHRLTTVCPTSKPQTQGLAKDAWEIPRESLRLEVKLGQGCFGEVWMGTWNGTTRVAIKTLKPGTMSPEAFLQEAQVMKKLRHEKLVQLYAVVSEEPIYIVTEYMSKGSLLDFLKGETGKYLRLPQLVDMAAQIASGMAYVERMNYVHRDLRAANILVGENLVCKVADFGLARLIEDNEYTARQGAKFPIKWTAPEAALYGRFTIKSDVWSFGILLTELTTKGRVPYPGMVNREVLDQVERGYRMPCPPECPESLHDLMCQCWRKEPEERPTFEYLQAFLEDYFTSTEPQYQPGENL

IC50 (INS-R): > 100 µM
IC50 (AKT1): > 100 µM
IC50 (SRC): 74 µM
IC50 (ERBB2): > 100 µM
SMILES: O=C1CCCc2cc(-c3ccnc(Nc4ccccc4)n3)ccc2N1 [Compound 2a, 7-(2-Anilinopyrimidin-4-yl)-1,3,4,5-tetrahydro-2H-1-benzazepin-2-one]
